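Each compound was tested at five concentrations against cells in 96-well plates for 48 hours. TGI marks complete inhibition of growth.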
What was measured:
Experiment in all cases: DTP human tumour cell line panel, 48 h
[1] = test system: OVCAR-3 ovarian
[2] = test system: SR leukemia
[3] = test system: MOLT-4 leukemia
[4] = test system: NCI-H522 lung
[5] = test system: NCI-H226 lung
[6] = test system: EKVX NSCLC
[7] = test system: SK-MEL-5 melanoma
[8] = test system: 786-0 renal
[9] = test system: TK-10 renal
[10] = test system: UACC-62 melanoma
[11] = test system: SF-295 CNS
[12] = test system: HT29 colon
[13] = test system: UO-31 renal
[14] = test system: HCC-2998 colon
[15] = test system: SF-268 CNS
[16] = test system: HS 578T breast
[17] = test system: SN12C renal
[18] = test system: U251 CNS
[19] = test system: SK-OV-3 ovarian
[20] = test system: MDA-N
[21] = test system: DU-145 prostate
[22] = test system: NCI-H460 lung
[23] = test system: HCT-116 colon
[24] = test system: K-562 leukemia
[25] = test system: ACHN renal
[26] = test system: M14 melanoma
[27] = test system: SNB-75 CNS
[28] = test system: OVCAR-8 ovarian
[29] = test system: CCRF-CEM leukemia
[30] = test system: OVCAR-4 ovarian
[31] = test system: IGROV1 ovarian
[32] = test system: KM12 colon
[33] = test system: LOX IMVI melanoma
[34] = test system: SW-620 colon
[35] = test system: NCI-H23 lung
[36] = test system: RPMI-8226 leukemia
[37] = test system: HOP-92 NSCLC
[38] = test system: HOP-62 NSCLC
[39] = test system: T-47D breast
[40] = test system: MDA-MB-231 breast
[41] = test system: MDA-MB-435
[42] = test system: NCI/ADR-RES ovarian
[43] = test system: SK-MEL-28 melanoma
[44] = test system: PC-3 prostate
[45] = test system: MALME-3M melanoma
[46] = test system: UACC-257 melanoma
[47] = test system: SNB-19 CNS
[48] = test system: RXF 393 renal
[49] = test system: SF-539 CNS
[50] = test system: CAKI-1 renal
[51] = test system: HCT-15 colon
[52] = test system: BT-549 breast
[53] = test system: A498 renal
[54] = test system: COLO 205 colon
[55] = test system: HL-60(TB) leukemia
[56] = test system: A549 NSCLC
[57] = test system: SK-MEL-2 melanoma
[58] = test system: MCF7 breast
[59] = test system: OVCAR-5 ovarian

Measured: TGI

CCOC(=O)N1CCN(Cc2cc(=O)n3ccc(C)cc3n2)CC1
> 100 µM: all assays above

O=S(=O)(c1ccccc1)N1CCN(S(=O)(=O)c2ccccc2)c2ccccc21
80.1 µM: [6]
not listed: [3] | [29] | [55]
> 100 µM: all other assays above

O=CNc1ccc2c(c1)C(=O)c1ccccc1-2
43.1 µM: [6]
not listed: [45]
> 100 µM: all other assays above

Source: PubChem BioAssay (NCI)
